From BigSolDB 2.1

`Oc1ccccc1C=N[C@@H]1CCCC[C@H]1N=Cc1ccccc1O` showed a solubility (mole fraction) (in 1,2-dichloroethane, 273.15 K) of 0.0862, a solubility (mole fraction) (in 1,2-dichloroethane, 278.15 K) of 0.0965 and a solubility (mole fraction) (in 1,2-dichloroethane, 283.15 K) of 0.109. It also gave a solubility (mole fraction) (in 1,2-dichloroethane, 288.15 K) of 0.12, a solubility (mole fraction) (in 1,2-dichloroethane, 293.15 K) of 0.134 and a solubility (mole fraction) (in 1,2-dichloroethane, 298.15 K) of 0.15. For the same compound, the solubility (mole fraction) (in 1,2-dichloroethane, 303.15 K) was 0.168, the solubility (mole fraction) (in 1,2-dichloroethane, 308.15 K) was 0.187 and the solubility (mole fraction) (in 1,2-dichloroethane, 313.15 K) was 0.211. It also gave a solubility (mole fraction) (in THF, 273.15 K) of 0.135, a solubility (mole fraction) (in THF, 278.15 K) of 0.144 and a solubility (mole fraction) (in THF, 283.15 K) of 0.157. It also gave a solubility (mole fraction) (in THF, 288.15 K) of 0.169, a solubility (mole fraction) (in THF, 293.15 K) of 0.186 and a solubility (mole fraction) (in THF, 298.15 K) of 0.201. For the same compound, the solubility (mole fraction) (in THF, 303.15 K) was 0.221, the solubility (mole fraction) (in THF, 308.15 K) was 0.242 and the solubility (mole fraction) (in THF, 313.15 K) was 0.263. The solubility (mole fraction) (in acetone, 273.15 K) was 0.0295, the solubility (mole fraction) (in acetone, 278.15 K) was 0.0351 and the solubility (mole fraction) (in acetone, 283.15 K) was 0.0402. The solubility (mole fraction) (in acetone, 288.15 K) was 0.0462, the solubility (mole fraction) (in acetone, 293.15 K) was 0.053 and the solubility (mole fraction) (in acetone, 298.15 K) was 0.0626. For the same compound, the solubility (mole fraction) (in acetone, 303.15 K) was 0.0732, the solubility (mole fraction) (in acetone, 308.15 K) was 0.0843 and the solubility (mole fraction) (in acetone, 313.15 K) was 0.0956. It also gave a solubility (mole fraction) (in acetonitrile, 273.15 K) of 0.00397, a solubility (mole fraction) (in acetonitrile, 278.15 K) of 0.00491 and a solubility (mole fraction) (in acetonitrile, 283.15 K) of 0.00616. For the same compound, the solubility (mole fraction) (in acetonitrile, 288.15 K) was 0.0076, the solubility (mole fraction) (in acetonitrile, 293.15 K) was 0.00961 and the solubility (mole fraction) (in acetonitrile, 298.15 K) was 0.0122. It also gave a solubility (mole fraction) (in acetonitrile, 303.15 K) of 0.0159, a solubility (mole fraction) (in acetonitrile, 308.15 K) of 0.02 and a solubility (mole fraction) (in acetonitrile, 313.15 K) of 0.025. The solubility (mole fraction) (in dichloromethane, 273.15 K) was 0.117, the solubility (mole fraction) (in dichloromethane, 278.15 K) was 0.13 and the solubility (mole fraction) (in dichloromethane, 283.15 K) was 0.141. The solubility (mole fraction) (in dichloromethane, 288.15 K) was 0.154, the solubility (mole fraction) (in dichloromethane, 293.15 K) was 0.165 and the solubility (mole fraction) (in dichloromethane, 298.15 K) was 0.18. It also gave a solubility (mole fraction) (in dichloromethane, 303.15 K) of 0.197, a solubility (mole fraction) (in dichloromethane, 308.15 K) of 0.213 and a solubility (mole fraction) (in dichloromethane, 313.15 K) of 0.229. For the same compound, the solubility (mole fraction) (in ethanol, 273.15 K) was 0.000787, the solubility (mole fraction) (in ethanol, 278.15 K) was 0.000988 and the solubility (mole fraction) (in ethanol, 283.15 K) was 0.00123. It also gave a solubility (mole fraction) (in ethanol, 288.15 K) of 0.00153, a solubility (mole fraction) (in ethanol, 293.15 K) of 0.00189 and a solubility (mole fraction) (in ethanol, 298.15 K) of 0.00236. It also gave a solubility (mole fraction) (in ethanol, 303.15 K) of 0.0029, a solubility (mole fraction) (in ethanol, 308.15 K) of 0.00358 and a solubility (mole fraction) (in ethanol, 313.15 K) of 0.00452. The solubility (mole fraction) (in ethyl acetate, 273.15 K) was 0.0241, the solubility (mole fraction) (in ethyl acetate, 278.15 K) was 0.0294 and the solubility (mole fraction) (in ethyl acetate, 283.15 K) was 0.0347. It also gave a solubility (mole fraction) (in ethyl acetate, 288.15 K) of 0.0415, a solubility (mole fraction) (in ethyl acetate, 293.15 K) of 0.0489 and a solubility (mole fraction) (in ethyl acetate, 298.15 K) of 0.0592. For the same compound, the solubility (mole fraction) (in ethyl acetate, 303.15 K) was 0.0691, the solubility (mole fraction) (in ethyl acetate, 308.15 K) was 0.0852 and the solubility (mole fraction) (in ethyl acetate, 313.15 K) was 0.101. For the same compound, the solubility (mole fraction) (in methanol, 273.15 K) was 0.00051, the solubility (mole fraction) (in methanol, 278.15 K) was 0.000645 and the solubility (mole fraction) (in methanol, 283.15 K) was 0.000817. It also gave a solubility (mole fraction) (in methanol, 288.15 K) of 0.00103, a solubility (mole fraction) (in methanol, 293.15 K) of 0.00128 and a solubility (mole fraction) (in methanol, 298.15 K) of 0.00161. It also gave a solubility (mole fraction) (in methanol, 303.15 K) of 0.00198, a solubility (mole fraction) (in methanol, 308.15 K) of 0.00242 and a solubility (mole fraction) (in methanol, 313.15 K) of 0.00298. The solubility (mole fraction) (in methyl acetate, 273.15 K) was 0.0199, the solubility (mole fraction) (in methyl acetate, 278.15 K) was 0.0244 and the solubility (mole fraction) (in methyl acetate, 283.15 K) was 0.0292. For the same compound, the solubility (mole fraction) (in methyl acetate, 288.15 K) was 0.0357, the solubility (mole fraction) (in methyl acetate, 293.15 K) was 0.0436 and the solubility (mole fraction) (in methyl acetate, 298.15 K) was 0.0532. It also gave a solubility (mole fraction) (in methyl acetate, 303.15 K) of 0.0648, a solubility (mole fraction) (in methyl acetate, 308.15 K) of 0.0791 and a solubility (mole fraction) (in methyl acetate, 313.15 K) of 0.0961. The solubility (mole fraction) (in n-hexane, 273.15 K) was 0.000539, the solubility (mole fraction) (in n-hexane, 278.15 K) was 0.000713 and the solubility (mole fraction) (in n-hexane, 283.15 K) was 0.000988. It also gave a solubility (mole fraction) (in n-hexane, 288.15 K) of 0.00131, a solubility (mole fraction) (in n-hexane, 293.15 K) of 0.00172 and a solubility (mole fraction) (in n-hexane, 298.15 K) of 0.00223. For the same compound, the solubility (mole fraction) (in n-hexane, 303.15 K) was 0.00287, the solubility (mole fraction) (in n-hexane, 308.15 K) was 0.00376 and the solubility (mole fraction) (in n-hexane, 313.15 K) was 0.00449. For the same compound, the solubility (mole fraction) (in n-propanol, 273.15 K) was 0.001, the solubility (mole fraction) (in n-propanol, 278.15 K) was 0.00125 and the solubility (mole fraction) (in n-propanol, 283.15 K) was 0.00157. For the same compound, the solubility (mole fraction) (in n-propanol, 288.15 K) was 0.00196, the solubility (mole fraction) (in n-propanol, 293.15 K) was 0.00243 and the solubility (mole fraction) (in n-propanol, 298.15 K) was 0.00303. It also gave a solubility (mole fraction) (in n-propanol, 303.15 K) of 0.00372, a solubility (mole fraction) (in n-propanol, 308.15 K) of 0.00452 and a solubility (mole fraction) (in n-propanol, 313.15 K) of 0.00554. The solubility (mole fraction) (in toluene, 273.15 K) was 0.0411, the solubility (mole fraction) (in toluene, 278.15 K) was 0.0487 and the solubility (mole fraction) (in toluene, 283.15 K) was 0.0566. For the same compound, the solubility (mole fraction) (in toluene, 288.15 K) was 0.0674, the solubility (mole fraction) (in toluene, 293.15 K) was 0.0802 and the solubility (mole fraction) (in toluene, 298.15 K) was 0.0954. The solubility (mole fraction) (in toluene, 303.15 K) was 0.11, the solubility (mole fraction) (in toluene, 308.15 K) was 0.129 and the solubility (mole fraction) (in toluene, 313.15 K) was 0.149.
